Source: paper PMC6886798, “Expression of myeloid Src-family kinases is associated with poor prognosis in AML and influences Flt3-ITD kinase inhibitor acquired resistance” (PLoS ONE, 2019)

Assays:
Assay in all cases: KINOMEscan
Assay type in all cases: binding
Conditions in all cases: 1.0 µM
[1] = target: T1, ABL1(E255K)-phosphorylated (Homo sapiens, UniProt P00519, E255K)
T1 construct: purchased Eurofins/DiscoverX KINOMEscan scanMAX
Procedure: (§1) Kinase retention to the immobilized ligand is then measured using quantitative real-time PCR for each kinase-specific DNA barcode.

[2] = target: T2, ABL1(Y253F)-phosphorylated (Homo sapiens, UniProt P00519, Y253F)
T2 construct: purchased Eurofins/DiscoverX KINOMEscan scanMAX
Procedure: as §1

[3] = target: T3, BIKE (Homo sapiens, UniProt Q9NSY1)
T3 construct: purchased Eurofins/DiscoverX KINOMEscan scanMAX
Procedure: as §1

[4] = target: T4, BRK (Homo sapiens, UniProt Q13882)
T4 construct: purchased Eurofins/DiscoverX KINOMEscan scanMAX
Procedure: as §1

[5] = target: T5, CAMK1 (Homo sapiens, UniProt Q14012)
T5 construct: purchased Eurofins/DiscoverX KINOMEscan scanMAX
Procedure: as §1

[6] = target: T6, CAMK1B (Homo sapiens, UniProt Q6P2M8)
T6 construct: purchased Eurofins/DiscoverX KINOMEscan scanMAX
Procedure: as §1

[7] = target: T7, CDK4 (Homo sapiens, UniProt P11802)
T7 construct: purchased Eurofins/DiscoverX KINOMEscan scanMAX
Procedure: as §1

[8] = target: T8, CDKL1 (Homo sapiens, UniProt Q00532)
T8 construct: purchased Eurofins/DiscoverX KINOMEscan scanMAX
Procedure: as §1

[9] = target: T9, CLK4 (Homo sapiens, UniProt Q9HAZ1)
T9 construct: purchased Eurofins/DiscoverX KINOMEscan scanMAX
Procedure: as §1

[10] = target: T10, CSNK1G1 (Homo sapiens, UniProt Q9HCP0)
T10 construct: purchased Eurofins/DiscoverX KINOMEscan scanMAX
Procedure: as §1

[11] = target: T11, CTK (Homo sapiens, UniProt P42679)
T11 construct: purchased Eurofins/DiscoverX KINOMEscan scanMAX
Procedure: as §1

[12] = target: T12, EPHA4 (Homo sapiens, UniProt P54764)
T12 construct: purchased Eurofins/DiscoverX KINOMEscan scanMAX
Procedure: as §1

[13] = target: T13, EPHB2 (Homo sapiens, UniProt P29323)
T13 construct: purchased Eurofins/DiscoverX KINOMEscan scanMAX
Procedure: as §1

[14] = target: T14, ERK8 (Homo sapiens, UniProt Q8TD08)
T14 construct: purchased Eurofins/DiscoverX KINOMEscan scanMAX
Procedure: as §1

[15] = target: T15, FAK (Homo sapiens, UniProt Q05397)
T15 construct: purchased Eurofins/DiscoverX KINOMEscan scanMAX
Procedure: as §1

[16] = target: T16, FGFR1 (Homo sapiens, UniProt P11362)
T16 construct: purchased Eurofins/DiscoverX KINOMEscan scanMAX
Procedure: as §1

[17] = target: T17, FLT3(D835H) (Homo sapiens, UniProt P36888, D835H)
T17 construct: purchased Eurofins/DiscoverX KINOMEscan scanMAX
Procedure: as §1

[18] = target: T18, GRK7 (Homo sapiens, UniProt Q8WTQ7)
T18 construct: purchased Eurofins/DiscoverX KINOMEscan scanMAX
Procedure: as §1

[19] = target: T19, MAP4K4 (Homo sapiens, UniProt O95819)
T19 construct: purchased Eurofins/DiscoverX KINOMEscan scanMAX
Procedure: as §1

[20] = target: T20, MKK7 (Homo sapiens, UniProt O14733)
T20 construct: purchased Eurofins/DiscoverX KINOMEscan scanMAX
Procedure: as §1

[21] = target: T21, MLK1 (Homo sapiens, UniProt P80192)
T21 construct: purchased Eurofins/DiscoverX KINOMEscan scanMAX
Procedure: as §1

[22] = target: T22, MLK3 (Homo sapiens, UniProt Q16584)
T22 construct: purchased Eurofins/DiscoverX KINOMEscan scanMAX
Procedure: as §1

[23] = target: T23, NEK2 (Homo sapiens, UniProt P51955)
T23 construct: purchased Eurofins/DiscoverX KINOMEscan scanMAX
Procedure: as §1

[24] = target: T24, PCTK2 (Homo sapiens, UniProt Q00537)
T24 construct: purchased Eurofins/DiscoverX KINOMEscan scanMAX
Procedure: as §1

[25] = target: T25, PIK3C2B (Homo sapiens, UniProt O00750)
T25 construct: purchased Eurofins/DiscoverX KINOMEscan scanMAX
Procedure: as §1

[26] = target: T26, PIM3 (Homo sapiens, UniProt Q86V86)
T26 construct: purchased Eurofins/DiscoverX KINOMEscan scanMAX
Procedure: as §1

[27] = target: T27, PLK2 (Homo sapiens, UniProt Q9NYY3)
T27 construct: purchased Eurofins/DiscoverX KINOMEscan scanMAX
Procedure: as §1

[28] = target: T28, PRKCD (Homo sapiens, UniProt Q05655)
T28 construct: purchased Eurofins/DiscoverX KINOMEscan scanMAX
Procedure: as §1

[29] = target: T29, PRKCH (Homo sapiens, UniProt P24723)
T29 construct: purchased Eurofins/DiscoverX KINOMEscan scanMAX
Procedure: as §1

[30] = target: T30, RAF1 (Homo sapiens, UniProt P04049)
T30 construct: purchased Eurofins/DiscoverX KINOMEscan scanMAX
Procedure: as §1

[31] = target: T31, RIPK1 (Homo sapiens, UniProt Q13546)
T31 construct: purchased Eurofins/DiscoverX KINOMEscan scanMAX
Procedure: as §1

[32] = target: T32, RSK2(Kin.Dom.1-N-terminal) (Homo sapiens, UniProt P51812)
T32 construct: RSK2(Kin.Dom.1-N-terminal); purchased Eurofins/DiscoverX KINOMEscan scanMAX
Procedure: as §1

[33] = target: T33, RSK4(Kin.Dom.1-N-terminal) (Homo sapiens, UniProt Q9UK32)
T33 construct: RSK4(Kin.Dom.1-N-terminal); purchased Eurofins/DiscoverX KINOMEscan scanMAX
Procedure: as §1

[34] = target: T34, SBK1 (Homo sapiens, UniProt Q52WX2)
T34 construct: purchased Eurofins/DiscoverX KINOMEscan scanMAX
Procedure: as §1

[35] = target: T35, SGK2 (Homo sapiens, UniProt Q9HBY8)
T35 construct: purchased Eurofins/DiscoverX KINOMEscan scanMAX
Procedure: as §1

[36] = target: T36, STK35 (Homo sapiens, UniProt Q8TDR2)
T36 construct: purchased Eurofins/DiscoverX KINOMEscan scanMAX
Procedure: as §1

[37] = target: T37, TLK1 (Homo sapiens, UniProt Q9UKI8)
T37 construct: purchased Eurofins/DiscoverX KINOMEscan scanMAX
Procedure: as §1

[38] = target: T38, TNIK (Homo sapiens, UniProt Q9UKE5)
T38 construct: purchased Eurofins/DiscoverX KINOMEscan scanMAX
Procedure: as §1

[39] = target: T39, TRKA (Homo sapiens, UniProt P04629)
T39 construct: purchased Eurofins/DiscoverX KINOMEscan scanMAX
Procedure: as §1

[40] = target: T40, TSSK1B (Homo sapiens, UniProt Q9BXA7)
T40 construct: DNA tag (qPCR barcode); purchased Eurofins/DiscoverX KINOMEscan scanMAX
Procedure: as §1

[41] = target: T41, YSK4 (Homo sapiens, UniProt Q56UN5)
T41 construct: purchased Eurofins/DiscoverX (KINOMEscan scanMAX service)
Procedure: as §1

T32 sequence (P51812 68-397 limits assumed): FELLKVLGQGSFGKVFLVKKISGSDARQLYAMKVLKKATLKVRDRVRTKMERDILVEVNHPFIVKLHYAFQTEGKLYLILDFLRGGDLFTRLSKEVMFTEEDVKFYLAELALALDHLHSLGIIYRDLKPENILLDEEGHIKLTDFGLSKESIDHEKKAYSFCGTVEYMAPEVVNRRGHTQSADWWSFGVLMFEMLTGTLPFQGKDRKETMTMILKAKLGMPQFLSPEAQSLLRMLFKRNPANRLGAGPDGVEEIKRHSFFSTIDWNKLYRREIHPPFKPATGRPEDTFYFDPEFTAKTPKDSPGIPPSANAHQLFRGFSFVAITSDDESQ
T6 sequence (Q6P2M8 whole entry): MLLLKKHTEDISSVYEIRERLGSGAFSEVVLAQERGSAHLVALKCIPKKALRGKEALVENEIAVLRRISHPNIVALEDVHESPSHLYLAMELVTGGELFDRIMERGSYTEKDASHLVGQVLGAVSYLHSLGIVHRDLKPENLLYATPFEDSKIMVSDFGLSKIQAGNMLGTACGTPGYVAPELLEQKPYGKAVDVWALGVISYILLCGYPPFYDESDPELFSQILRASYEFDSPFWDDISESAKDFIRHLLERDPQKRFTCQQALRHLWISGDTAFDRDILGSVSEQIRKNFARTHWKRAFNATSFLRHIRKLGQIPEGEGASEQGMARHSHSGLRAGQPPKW
T3 sequence (Q9NSY1 whole entry): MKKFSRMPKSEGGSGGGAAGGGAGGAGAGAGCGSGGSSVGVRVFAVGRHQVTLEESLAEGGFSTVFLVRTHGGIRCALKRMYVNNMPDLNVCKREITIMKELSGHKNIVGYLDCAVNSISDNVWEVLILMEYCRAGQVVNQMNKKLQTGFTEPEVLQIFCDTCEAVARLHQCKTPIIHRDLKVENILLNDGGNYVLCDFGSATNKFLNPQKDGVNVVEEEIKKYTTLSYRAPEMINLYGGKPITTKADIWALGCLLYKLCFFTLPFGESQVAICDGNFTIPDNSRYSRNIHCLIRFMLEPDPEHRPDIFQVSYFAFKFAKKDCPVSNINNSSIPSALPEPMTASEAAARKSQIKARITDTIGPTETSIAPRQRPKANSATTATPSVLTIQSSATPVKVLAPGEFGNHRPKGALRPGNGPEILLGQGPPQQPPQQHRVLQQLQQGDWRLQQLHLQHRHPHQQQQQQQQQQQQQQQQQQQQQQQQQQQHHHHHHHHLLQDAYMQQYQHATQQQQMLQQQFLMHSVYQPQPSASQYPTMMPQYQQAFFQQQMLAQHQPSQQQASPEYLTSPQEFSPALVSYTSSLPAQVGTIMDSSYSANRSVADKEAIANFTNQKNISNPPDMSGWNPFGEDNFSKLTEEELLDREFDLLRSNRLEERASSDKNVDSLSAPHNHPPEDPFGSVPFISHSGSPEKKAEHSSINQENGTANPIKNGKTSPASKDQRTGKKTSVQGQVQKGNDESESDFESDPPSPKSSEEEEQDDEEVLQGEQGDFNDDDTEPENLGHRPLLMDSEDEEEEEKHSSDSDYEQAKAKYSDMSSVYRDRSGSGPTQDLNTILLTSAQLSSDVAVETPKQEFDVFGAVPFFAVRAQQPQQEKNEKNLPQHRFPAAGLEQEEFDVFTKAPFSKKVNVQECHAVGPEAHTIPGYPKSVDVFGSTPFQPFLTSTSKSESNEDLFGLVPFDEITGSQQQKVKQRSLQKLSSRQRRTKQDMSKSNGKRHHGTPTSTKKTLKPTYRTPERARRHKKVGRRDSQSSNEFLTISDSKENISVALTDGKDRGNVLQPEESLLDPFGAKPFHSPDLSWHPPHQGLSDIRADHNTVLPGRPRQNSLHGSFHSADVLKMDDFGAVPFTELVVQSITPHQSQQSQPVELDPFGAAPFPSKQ
T28 sequence (Q05655 whole entry): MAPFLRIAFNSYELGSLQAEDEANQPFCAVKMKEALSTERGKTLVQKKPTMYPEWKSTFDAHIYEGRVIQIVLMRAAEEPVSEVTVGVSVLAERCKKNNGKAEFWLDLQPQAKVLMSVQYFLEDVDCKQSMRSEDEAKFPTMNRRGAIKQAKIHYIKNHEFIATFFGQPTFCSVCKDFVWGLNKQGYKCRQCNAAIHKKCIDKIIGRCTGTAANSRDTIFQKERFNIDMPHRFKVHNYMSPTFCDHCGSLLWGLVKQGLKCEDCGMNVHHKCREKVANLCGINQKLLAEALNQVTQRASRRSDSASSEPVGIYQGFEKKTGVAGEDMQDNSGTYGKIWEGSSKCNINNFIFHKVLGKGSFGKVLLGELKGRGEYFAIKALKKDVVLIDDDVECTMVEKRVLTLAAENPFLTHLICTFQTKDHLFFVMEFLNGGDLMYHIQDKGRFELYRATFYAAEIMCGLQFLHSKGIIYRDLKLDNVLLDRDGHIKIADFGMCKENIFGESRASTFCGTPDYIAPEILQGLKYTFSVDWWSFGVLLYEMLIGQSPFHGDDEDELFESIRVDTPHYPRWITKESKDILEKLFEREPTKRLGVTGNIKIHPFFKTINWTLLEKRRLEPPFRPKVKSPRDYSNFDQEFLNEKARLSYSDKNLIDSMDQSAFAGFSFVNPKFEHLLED
T25 sequence (O00750 whole entry): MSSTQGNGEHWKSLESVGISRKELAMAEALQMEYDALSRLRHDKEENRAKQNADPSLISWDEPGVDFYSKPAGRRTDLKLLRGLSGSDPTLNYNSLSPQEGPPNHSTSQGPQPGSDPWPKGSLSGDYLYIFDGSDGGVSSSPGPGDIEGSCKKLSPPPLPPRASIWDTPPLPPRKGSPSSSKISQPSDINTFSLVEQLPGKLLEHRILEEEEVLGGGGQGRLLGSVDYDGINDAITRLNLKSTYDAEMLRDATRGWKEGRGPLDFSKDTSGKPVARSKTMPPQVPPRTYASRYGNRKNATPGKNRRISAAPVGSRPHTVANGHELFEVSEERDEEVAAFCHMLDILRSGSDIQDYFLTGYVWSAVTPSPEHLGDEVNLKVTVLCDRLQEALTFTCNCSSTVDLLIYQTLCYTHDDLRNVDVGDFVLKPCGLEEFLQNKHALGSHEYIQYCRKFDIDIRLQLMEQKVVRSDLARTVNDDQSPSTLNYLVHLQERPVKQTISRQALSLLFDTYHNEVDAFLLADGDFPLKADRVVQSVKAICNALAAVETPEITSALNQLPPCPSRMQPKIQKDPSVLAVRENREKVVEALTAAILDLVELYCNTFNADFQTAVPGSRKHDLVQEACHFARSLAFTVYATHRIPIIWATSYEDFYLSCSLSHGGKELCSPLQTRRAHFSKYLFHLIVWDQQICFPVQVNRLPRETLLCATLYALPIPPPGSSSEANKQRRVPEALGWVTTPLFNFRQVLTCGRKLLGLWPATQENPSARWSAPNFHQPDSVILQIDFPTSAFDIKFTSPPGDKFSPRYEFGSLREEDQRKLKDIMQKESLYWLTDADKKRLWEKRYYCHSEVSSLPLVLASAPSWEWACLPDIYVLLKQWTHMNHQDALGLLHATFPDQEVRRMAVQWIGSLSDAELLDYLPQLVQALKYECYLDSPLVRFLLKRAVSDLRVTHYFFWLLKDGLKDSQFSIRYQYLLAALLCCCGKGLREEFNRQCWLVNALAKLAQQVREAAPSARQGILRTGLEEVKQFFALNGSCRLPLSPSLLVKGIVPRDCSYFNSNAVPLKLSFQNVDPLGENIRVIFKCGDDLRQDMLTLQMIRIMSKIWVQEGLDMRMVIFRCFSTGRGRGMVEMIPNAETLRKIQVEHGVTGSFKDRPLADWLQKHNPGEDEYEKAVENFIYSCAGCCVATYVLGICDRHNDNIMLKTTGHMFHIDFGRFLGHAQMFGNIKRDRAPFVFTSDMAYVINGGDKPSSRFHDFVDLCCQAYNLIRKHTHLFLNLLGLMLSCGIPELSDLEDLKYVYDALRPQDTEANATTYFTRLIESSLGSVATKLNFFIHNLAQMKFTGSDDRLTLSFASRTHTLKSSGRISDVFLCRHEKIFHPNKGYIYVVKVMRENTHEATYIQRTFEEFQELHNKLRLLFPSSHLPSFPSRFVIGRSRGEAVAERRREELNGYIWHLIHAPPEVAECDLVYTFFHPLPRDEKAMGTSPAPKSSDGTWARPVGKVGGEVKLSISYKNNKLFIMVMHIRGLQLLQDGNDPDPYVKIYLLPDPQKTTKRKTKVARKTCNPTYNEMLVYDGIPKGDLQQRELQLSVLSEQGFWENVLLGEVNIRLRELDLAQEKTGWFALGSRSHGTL
T14 sequence (Q8TD08 whole entry): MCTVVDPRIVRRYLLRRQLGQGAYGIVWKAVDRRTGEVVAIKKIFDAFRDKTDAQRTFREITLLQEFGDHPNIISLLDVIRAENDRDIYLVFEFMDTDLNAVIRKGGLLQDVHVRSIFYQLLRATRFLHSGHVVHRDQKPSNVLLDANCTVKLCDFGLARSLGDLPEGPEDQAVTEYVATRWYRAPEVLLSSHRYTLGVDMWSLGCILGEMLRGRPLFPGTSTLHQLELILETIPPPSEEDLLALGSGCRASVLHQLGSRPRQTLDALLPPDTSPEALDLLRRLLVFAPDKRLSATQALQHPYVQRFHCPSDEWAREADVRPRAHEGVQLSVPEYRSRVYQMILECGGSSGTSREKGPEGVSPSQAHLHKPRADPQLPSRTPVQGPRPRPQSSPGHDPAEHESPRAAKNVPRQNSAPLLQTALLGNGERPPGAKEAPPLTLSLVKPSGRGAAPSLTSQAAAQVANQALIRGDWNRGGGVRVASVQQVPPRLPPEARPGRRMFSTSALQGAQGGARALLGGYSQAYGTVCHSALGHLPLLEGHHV

In the case of `CN1CCN(C2CCC(n3cc(-c4ccc(Oc5ccccc5)cc4)c4c(N)ncnc43)CC2)CC1` (centres unmarked) [A-419259], the “% Control” value [1] is reported as 0.5%, the “% Control” value [2] is reported as 0.35% and the “% Control” value [3] is reported as 80%. The “% Control” value [4] was 0.2%, the “% Control” value [5] was 92% and the “% Control” value [6] was 100%. The “% Control” value [7] was 91%, the “% Control” value [8] was 99% and the “% Control” value [9] was 100%. For the same compound, the “% Control” value [10] was 80%, the “% Control” value [11] was 89% and the “% Control” value [12] was 100%. For the same compound, the “% Control” value [13] was 100%, the “% Control” value [14] was 100% and the “% Control” value [15] was 72%. For the same compound, the “% Control” value [16] was 1.6%, the “% Control” value [17] was 12% and the “% Control” value [18] was 62%. The “% Control” value [19] was 83%, the “% Control” value [20] was 46% and the “% Control” value [21] was 88%. For the same compound, the “% Control” value [22] was 100%, the “% Control” value [23] was 81% and the “% Control” value [24] was 59%. For the same compound, the “% Control” value [25] was 10%, the “% Control” value [26] was 100% and the “% Control” value [27] was 77%. For the same compound, the “% Control” value [28] was 89%, the “% Control” value [29] was 87% and the “% Control” value [30] was 40%. For the same compound, the “% Control” value [31] was 100%, the “% Control” value [32] was 16% and the “% Control” value [33] was 68%. The “% Control” value [34] was 96%, the “% Control” value [35] was 90% and the “% Control” value [36] was 27%. For the same compound, the “% Control” value [37] was 93%, the “% Control” value [38] was 100% and the “% Control” value [39] was 16%. The “% Control” value [40] was 100% and the “% Control” value [41] was 58%.
